According to US20240383900A1, “SUBSTITUTED PYRAZOLO [1,5-A]PYRIMIDINE-7-AMINE COMPOUNDS AS CDK INHIBITORS AND THEIR THERAPEUTIC USE” (Carrick Therapeutics Limited, priority 2021, published 2024):
pIC50: −log10 of the molar value. Read-outs that look alike come from different tables or passages of the source.

Columns and labels:
A673 cells = assay: Cytotoxicity in A673 cells (Cell Titer Glo viability); type: cell-based; conditions: for Ratio of Biochemical Potency:Cellular Potency: CDK12 IC50 / A673 IC50; for IC50 / pIC50: Homo sapiens; for IC50: A673, read-out: Cellular Potency IC50 (nM) (in A673 cells); for pIC50: A673 cells, 72 hours, read-out: A673 IC50
Protocol: Cells were plated in 96-well plates at a density of […] viable cells per well in 200 μL fully supplemented growth medium (DMEM+10% heat inactivated foetal bovine serum) and incubated for 24 hours in standard tissue culture conditions. Compounds, including MLN4924, were solubilised in DMSO and then diluted in fully supplemented growth medium at 2× their final assay concentration such that the final DMSO concentration was 0.1%. Growth medium in the assay plates was replaced with 50 μL of growth medium containing 2×MLN4924 (final assay concentration: 30 nM, where tested) or vehicle only and 50 μL of growth medium containing a 2× compound concentration series or vehicle only such that each compound was at 1× final assay concentration in 100 μL.
Cells were then incubated for 72 hours in standard tissue culture conditions before viability was assessed using 50 μL Cell Titer Glo reagent (Promega) per well and luminescence measured on an EnVision plate reader. Data were normalised to vehicle control (100%) and cells treated with 0.1% Triton x-100 for 1 hour before viability measurement (0%; full cell kill). […] Viability curves generated in the presence of MLN4924 were normalised and fixed to controls treated with MLN4924.

Human CDK12 wt/CycK = Human CDK12 wt/CycK (Homo sapiens (Human), UniProt Q9NYV4); assay: Radiometric protein kinase assay (33PanQinase Activity Assay), CDK12; type: biochemical; conditions: for CDK7/CDK12: ratio of CDK7 IC50 to CDK12 IC50, greater than 1 indicates selectivity for CDK12
Sequence of Human CDK12 wt/CycK (Q9NYV4 whole entry): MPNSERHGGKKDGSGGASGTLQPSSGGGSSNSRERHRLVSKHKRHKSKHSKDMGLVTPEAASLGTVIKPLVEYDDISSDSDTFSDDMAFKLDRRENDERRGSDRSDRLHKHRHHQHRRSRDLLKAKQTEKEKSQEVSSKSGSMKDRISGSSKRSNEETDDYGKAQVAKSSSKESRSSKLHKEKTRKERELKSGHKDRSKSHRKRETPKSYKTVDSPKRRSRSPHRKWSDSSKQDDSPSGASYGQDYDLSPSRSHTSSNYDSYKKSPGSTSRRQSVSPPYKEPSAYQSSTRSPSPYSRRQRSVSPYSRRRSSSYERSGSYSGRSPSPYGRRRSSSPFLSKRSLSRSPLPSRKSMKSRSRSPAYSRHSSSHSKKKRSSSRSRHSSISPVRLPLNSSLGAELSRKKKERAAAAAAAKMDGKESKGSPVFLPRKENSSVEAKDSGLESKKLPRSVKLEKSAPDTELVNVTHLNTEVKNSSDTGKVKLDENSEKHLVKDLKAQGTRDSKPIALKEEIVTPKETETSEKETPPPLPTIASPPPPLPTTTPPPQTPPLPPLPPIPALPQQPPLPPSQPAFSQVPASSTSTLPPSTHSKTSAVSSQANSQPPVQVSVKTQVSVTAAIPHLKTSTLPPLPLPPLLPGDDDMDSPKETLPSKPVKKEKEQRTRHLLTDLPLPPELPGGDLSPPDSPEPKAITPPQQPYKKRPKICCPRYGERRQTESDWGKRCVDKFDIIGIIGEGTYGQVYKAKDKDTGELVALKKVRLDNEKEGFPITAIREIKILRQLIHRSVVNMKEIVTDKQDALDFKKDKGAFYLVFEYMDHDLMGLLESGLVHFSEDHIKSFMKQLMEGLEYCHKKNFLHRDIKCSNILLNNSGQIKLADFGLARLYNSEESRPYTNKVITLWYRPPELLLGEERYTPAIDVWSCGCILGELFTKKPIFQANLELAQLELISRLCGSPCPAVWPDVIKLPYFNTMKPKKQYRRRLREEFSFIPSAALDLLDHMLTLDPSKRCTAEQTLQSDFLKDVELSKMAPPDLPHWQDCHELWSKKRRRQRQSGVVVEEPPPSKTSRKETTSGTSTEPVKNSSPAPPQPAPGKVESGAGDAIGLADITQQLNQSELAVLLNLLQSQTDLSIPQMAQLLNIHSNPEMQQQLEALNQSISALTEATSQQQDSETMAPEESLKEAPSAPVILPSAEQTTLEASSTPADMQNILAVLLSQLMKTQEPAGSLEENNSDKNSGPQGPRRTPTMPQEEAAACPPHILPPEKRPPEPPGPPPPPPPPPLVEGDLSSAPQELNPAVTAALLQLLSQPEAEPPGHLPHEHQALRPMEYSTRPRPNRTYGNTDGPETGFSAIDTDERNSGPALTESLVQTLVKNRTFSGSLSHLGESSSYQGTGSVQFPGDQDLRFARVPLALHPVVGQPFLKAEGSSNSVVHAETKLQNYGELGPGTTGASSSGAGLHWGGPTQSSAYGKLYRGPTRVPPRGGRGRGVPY
Sequence of Human CDK12 wt/CycK (O75909 whole entry partner): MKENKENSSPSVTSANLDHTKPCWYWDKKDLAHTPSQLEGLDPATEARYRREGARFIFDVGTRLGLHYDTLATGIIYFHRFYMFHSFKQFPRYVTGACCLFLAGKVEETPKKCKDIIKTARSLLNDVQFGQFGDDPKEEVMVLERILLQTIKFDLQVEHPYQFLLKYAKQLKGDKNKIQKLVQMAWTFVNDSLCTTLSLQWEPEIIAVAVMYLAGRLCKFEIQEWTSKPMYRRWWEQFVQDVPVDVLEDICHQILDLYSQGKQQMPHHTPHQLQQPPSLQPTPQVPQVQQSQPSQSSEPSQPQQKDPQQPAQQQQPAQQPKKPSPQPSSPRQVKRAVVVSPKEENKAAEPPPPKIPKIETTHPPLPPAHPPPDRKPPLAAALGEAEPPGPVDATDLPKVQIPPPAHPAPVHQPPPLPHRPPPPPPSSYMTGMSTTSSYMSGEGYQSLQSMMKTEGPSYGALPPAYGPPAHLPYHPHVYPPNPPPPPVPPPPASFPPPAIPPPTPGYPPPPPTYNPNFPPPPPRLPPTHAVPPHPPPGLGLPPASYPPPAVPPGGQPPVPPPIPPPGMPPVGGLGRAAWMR
Protocol: (§1) A radiometric protein kinase assay (^33PanQinase® Activity Assay) was used for measuring the kinase activity of the two protein kinases (CDK12/CDK7). All kinase assays were performed in 96-well FlashPlates™ from PerkinElmer (Boston, MA, USA) in a 50 μL reaction volume.
(§2) The reaction cocktail was pipetted in four steps in the following order: • 20 μL of assay buffer (standard buffer) • 5 μL of ATP solution (in H2O) • 5 μL of test compound (in 10% DMSO) • 10 μL of substrate/10 μL of enzyme solution (premixed)
(§3) The reaction mixture was incubated at 30° C. for 60 min and then stopped by the addition of 2% (v/v) H3PO4. Plates were aspirated and washed two times with 200 μL 0.9% (w/v) NaCl. Incorporation of ^33Pi was determined with a microplate scintillation count (Microbeta, Wallac).
The fitting method used was a least-squares fit.

Human CDK7/CycH/MAT1 = Human CDK7/CycH/MAT1 (Homo sapiens (Human), UniProt P50613); assay: Radiometric protein kinase assay (33PanQinase Activity Assay), CDK7; type: biochemical; conditions: ATP 3 μM
Sequence of Human CDK7/CycH/MAT1 (P50613 whole entry): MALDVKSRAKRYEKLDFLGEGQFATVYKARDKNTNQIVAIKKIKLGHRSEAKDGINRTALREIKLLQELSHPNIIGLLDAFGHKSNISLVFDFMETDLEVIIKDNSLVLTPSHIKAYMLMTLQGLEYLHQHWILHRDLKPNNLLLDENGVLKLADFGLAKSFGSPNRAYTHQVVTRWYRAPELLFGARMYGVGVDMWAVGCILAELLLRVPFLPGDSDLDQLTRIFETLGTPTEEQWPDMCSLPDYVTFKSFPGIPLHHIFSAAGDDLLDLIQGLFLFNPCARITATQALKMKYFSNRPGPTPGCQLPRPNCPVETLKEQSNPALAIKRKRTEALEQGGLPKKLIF
Sequence of Human CDK7/CycH/MAT1 (P51946 whole entry partner): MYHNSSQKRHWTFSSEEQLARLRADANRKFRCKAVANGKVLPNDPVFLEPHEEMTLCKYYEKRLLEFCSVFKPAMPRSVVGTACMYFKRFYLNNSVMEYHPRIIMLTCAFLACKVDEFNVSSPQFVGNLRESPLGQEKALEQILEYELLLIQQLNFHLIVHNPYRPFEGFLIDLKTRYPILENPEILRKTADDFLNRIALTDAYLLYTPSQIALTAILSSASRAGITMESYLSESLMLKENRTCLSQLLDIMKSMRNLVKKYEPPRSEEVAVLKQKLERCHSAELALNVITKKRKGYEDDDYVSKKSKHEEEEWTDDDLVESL
Sequence of Human CDK7/CycH/MAT1 (P51948 whole entry partner): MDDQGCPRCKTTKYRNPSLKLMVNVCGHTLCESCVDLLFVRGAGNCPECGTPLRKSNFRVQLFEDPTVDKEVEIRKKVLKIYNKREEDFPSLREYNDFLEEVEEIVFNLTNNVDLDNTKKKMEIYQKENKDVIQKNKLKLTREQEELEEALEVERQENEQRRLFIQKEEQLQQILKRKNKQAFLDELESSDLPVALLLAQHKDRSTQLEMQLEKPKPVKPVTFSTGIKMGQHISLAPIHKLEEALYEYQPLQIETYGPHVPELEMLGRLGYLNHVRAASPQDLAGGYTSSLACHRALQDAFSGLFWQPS
Protocol: Additionally for the CDK7 assay: • Human CDK7/CycH/MAT1 (ProQinase, 0366-0360-4—Lot 2). • RBER-CHKtide (ProQinase, 0581-0000-5—Lot 106).
as §1, §2
For the CDK7 assay, a reaction mixture (50 μL) containing the following components was prepared: • 70 mM HEPES-NaOH (pH 7.5); • sodium orthovanadate (3 μM); • PEG-20000 (50 μg/mL); • DTT (1.2 mM); • MgCl2 (3 mM); • MnCl2 (3 mM); • purified human CDK7/CycH/MAT1 (3.3 nM—Lot 02); • RBER-CHKtide substrate (40 μg/mL—Lot 106); • ATP (3 μM); • [γ-33P]-ATP (approx. 8×10^5 cpm per well); and • test compound at the appropriate concentration such that the final concentration of DMSO was […].
as §3
The residual activities for each concentration and the compound IC50 values were calculated using Quattro Workflow V3.1.1 (Quattro Research GmbH, Munich, Germany). The fitting model for the IC50 determinations was “Sigmoidal response (variable slope)” with parameters “top” fixed at 100% and “bottom” at 0%. The fitting method used was a least-squares fit.

[1] = ATP 0.3 μM, read-out: CDK12 IC50
[2] = read-out: CKD12 Biochemical Potency IC50

Compound | Ratio of Biochemical Potency:Cellular Potency (A673 cells) | IC50 (A673 cells) | pIC50 (A673 cells) | pIC50 (Human CDK12 wt/CycK; [1]) | CDK7/CDK12 (Human CDK12 wt/CycK) | pIC50 (Human CDK12 wt/CycK; [2]) | pIC50 (Human CDK7/CycH/MAT1)
O=C1CC(CNc2cc(NCc3ccc(-c4ccccn4)cc3)n3ncc(C4CC4)c3n2)CCN1 (stereo not shown) [PPA-051] | 22.98 | 28.9 nM | 7.54 | 6.18 | 16.9 | 6.18 | 4.95
O[C@H]1CNCC[C@@H]1CNc1cc(NCc2ccc(-c3ccccn3)cc2)n2ncc(Cl)c2n1 [PPA-016] | 110.00 | 0.2 nM | 9.70 | 7.66 | 4.3 | 7.66 | 7.03
c1ccc(-c2ccc(CNc3cc(N4CC5(CNC5)C4)nc4c(C5CC5)cnn34)cc2)nc1 [PPA-084] | 15.28 | 73.3 nM | 7.13 | 5.95 | 12.5 | 5.95 | 4.85
c1ccc(-c2ccc(CNc3cc(N[C@@H]4CCCNC4)nc4c(C5CC5)cnn34)cc2)nc1 [PPA-045] | 11.27 | 33.2 nM | 7.48 | 6.43 | 25.7 | 6.43 | 5.02
O[C@H]1CNCC[C@@H]1CNc1cc(NCc2ccc(-c3ccccc3)cc2)n2ncc(Cl)c2n1 [PPA-083] | 7.11 | 4.5 nM | 8.35 | 7.49 | 3.7 | 7.49 | 6.93
NC1CN(c2cc(NCc3ccc(-c4ccccn4)cc3)n3ncc(C4CC4)c3n2)C1 [PPA-057] | 24.65 | 50.3 nM | 7.30 | 5.91 | 10.7 | 5.91 | 4.88
COc1cc(-c2ccccn2)ccc1CNc1cc(NC[C@H]2CCNC[C@@H]2O)nc2c(C3CC3)cnn12 [PPA-030] | 35.16 | 6.2 nM | 8.21 | 6.66 | 1.7 | 6.66 | 6.43
O[C@H]1CNCC[C@@H]1CNc1cc(NCc2ccc(-c3ccccn3)cn2)n2ncc(C3CC3)c2n1 [PPA-021] | 9.20 | 7.5 nM | 8.12 | 7.16 | 5.7 | 7.16 | 6.41
c1ccc(-c2ccc(CNc3cc(N4CCNCC4)nc4c(C5CC5)cnn34)cc2)nc1 [PPA-038] | 18.55 | 6.2 nM | 8.21 | 6.94 | 26.3 | 6.94 | 5.52
O[C@H]1CNCC[C@@H]1CNc1cc(NCc2c(F)cc(-c3ccccc3)cc2F)n2ncc(C3CC3)c2n1 [PPA-076] | <14.9 | > 100 nM | < 7.00 | 5.83 | 1.5 | 5.83 | 5.65
FC1(F)CNCCC1CNc1cc(NCc2ccc(-c3ccccn3)cc2)n2ncc(C3CC3)c2n1 (stereo not shown) [PPA-041] | 10.92 | 17.3 nM | 7.76 | 6.72 | 8.5 | 6.72 | 5.80
O[C@H]1CNCC[C@@H]1CNc1cc(NCc2ccc(-c3ccccn3)cc2F)n2ncc(Cl)c2n1 [PPA-074] | 32.86 | 0.7 nM | 9.15 | 7.64 | 15.2 | 7.64 | 6.46
O=C1C[C@H](Nc2cc(NCc3ccc(-c4ccccn4)cc3)n3ncc(C4CC4)c3n2)CN1 [PPA-075] | 25.44 | 5.7 nM | 8.24 | 6.84 | 32.6 | 6.84 | 5.33
COc1cccnc1-c1ccc(CNc2cc(NC[C@H]3CCNC[C@@H]3O)nc3c(C(C)C)cnn23)cc1 [PPA-013] | 40.45 | 2.2 nM | 8.66 | 7.05 | 1.3 | 7.05 | 6.94
CC(=O)N1CCC(CNc2cc(NCc3ccc(-c4ccccn4)cc3)n3ncc(C4CC4)c3n2)CC1 [PPA-046] | 12.38 | 305 nM | 6.52 | 5.42 | >8 | 5.42 | < 4.52
CCc1cnn2c(NCc3ccc(-c4ccccn4)cc3F)cc(NC[C@H]3CCNC[C@@H]3O)nc12 [PPA-068] | 28.00 | 1.5 nM | 8.82 | 7.38 | 7.7 | 7.38 | 6.49
CC(C)c1cnn2c(NCc3ccc(-c4ncccc4F)cc3)cc(NC[C@H]3CCNC[C@@H]3O)nc12 [PPA-014] | 11.56 | 6.4 nM | 8.19 | 7.13 | 1.0 | 7.13 | 7.14
CC1(CNc2cc(NCc3ccc(-c4ccccn4)cc3)n3ncc(C4CC4)c3n2)CCNCC1 [PPA-063] | – | 5.9 nM | 8.23 | – | – | – | –
CC(C)c1cnn2c(NCc3ccc(-c4ccncn4)cc3)cc(NC[C@H]3CCNC[C@@H]3O)nc12 [PPA-008] | 1.63 | 32 nM | 7.49 | 7.28 | 3.0 | 7.28 | 6.81
CS(=O)(=O)N1CCC(CNc2cc(NCc3ccc(-c4ccccn4)cc3)n3ncc(C4CC4)c3n2)CC1 [PPA-056] | – | > 100 nM | < 7.00 | – | – | – | –
